Results as given in ChEMBL document CHEMBL5365400, “Design and synthesis of aminopyridine containing biaryls reducing c-MYC protein levels in cells” (Bioorg Med Chem Lett, 2023).
In brackets after ≈: the same amount, converted by molar mass.

How the values were obtained:
[1] = Lipophilicity, log D of the compound at pH 7.4 by chromatographic method; format: physicochemical; details: buffer
[2] = Aqueous solubility of compound; format: physicochemical; details: buffer
[3] = Cmax in po dosed rat; format: ADME, organism-based; parameters: route po; details: in vivo
[4] = Volume of distribution at steady state in po dosed rat; format: ADME, organism-based; details: in vivo
[5] = AUC (0 to infinity) in po dosed rat; format: ADME, organism-based; parameters: route po; details: in vivo
[6] = Clearance in po dosed rat; format: ADME, organism-based; details: in vivo
[7] = Oral bioavailability in rat; format: ADME, organism-based; details: in vivo
[8] = Artificial membrane permeability of compound; format: physicochemical; details: PAMPA; read-out: permeability
[9] = Half life in po dosed rat; format: ADME, organism-based; details: in vivo

chromatographic logD [1]	solubility [2] [µg/mL]	SMILES	also measured
7.4		CCOCCc1nc2ccccc2nc1-c1ccc(N(CC)CC)nc1	
4.2	169 (≈ 466 µM)	CCN(CC)c1ccc(-c2nc3cnccn3c2Cc2coc(C)n2)cn1	
8		CCOCCc1cc(-c2ccc(N(CC)CC)nc2)nc2ccccc12	
5.1	65 (≈ 180 µM)	CCN(CC)c1ccc(-c2nc3ccccc3n2Cc2coc(C)n2)cn1	Cmax [3]: 180 ng/mL; Vdss [4]: 2.1 L/kg; AUC(0-inf) [5]: 126 ng·h/mL; clearance [6]: 160 mL/min/kg; bioavailability [7]: < 5%; Papp [8]: 68 ×10⁻⁶ cm/s; half-life [9]: 13.2 min
6.2	90 (≈ 237 µM)	CCOCCc1c(-c2ccc(N(CC)CC)nc2)c(=O)n(C)c2ccccc12	
3	≥ 119	CCN(CC)c1ccc(-c2nc3ncncc3n2Cc2coc(C)n2)cn1	
5	≥ 187	CCN(CC)c1ccc(-c2nc3cccnn3c2Cc2coc(C)n2)cn1	Cmax [3]: 110 ng/mL; Vdss [4]: 2.4 L/kg; AUC(0-inf) [5]: 94 ng·h/mL; clearance [6]: 190 mL/min/kg; Papp [8]: 68.5 ×10⁻⁶ cm/s; half-life [9]: 13.2 min
6	67 (≈ 198 µM)	CCOCCn1c(-c2ccc(N(CC)CC)nc2)nc2ccccc21	
7	33 (≈ 94.4 µM)	CCOCCc1c(-c2ccc(N(CC)CC)nc2)ncc2ccccc12	
6.9		CCOCCn1c(-c2ccc(N(CC)CC)nc2)nc(Br)c1Br	
5.4	92 (≈ 255 µM)	CCN(CC)c1ccc(-n2nc3ccccc3c2Cc2coc(C)n2)cn1	
7.4		CCOCCc1cc(Cl)cnc1-c1ccc(N(CC)CC)nc1	
3.7		CCN(CC)c1ccc(-c2nc3nccnc3n2Cc2coc(C)n2)cn1	
5.4	46 (≈ 127 µM)	CCN(CC)c1ccc(-c2nn3ccccc3c2Cc2coc(C)n2)cn1	
5.4		CCOCCc1cccnc1-c1ccc(N(CC)CC)nc1	
6.9		CCOCCc1c(-c2ccc(N(CC)CC)nc2)cnc2ccccc12	
4.7	80 (≈ 206 µM)	Cc1nc(Cc2c(-c3ccc(N4[C@@H](C)CC[C@@H]4C)nc3)nc3cccnn23)co1	Cmax [3]: 220 ng/mL; Vdss [4]: 3.1 L/kg; AUC(0-inf) [5]: 108 ng·h/mL; clearance [6]: 180 mL/min/kg; Papp [8]: 57 ×10⁻⁶ cm/s; half-life [9]: 14.4 min
4.2		CCOCCn1ccnc1-c1ccc(N(CC)CC)nc1	
5	19 (≈ 52 µM)	CCOCCc1c(-c2ccc(N(CC)CC)nc2)c(=O)[nH]c2ccccc12	
7.2	38 (≈ 109 µM)	CCOCCc1cc2ccccc2nc1-c1ccc(N(CC)CC)nc1	
1.5	≥ 112	CCN(CC)c1ccc(-c2nc3ncccn3c2Cc2coc(C)n2)cn1	
4.9	> 65	CCN(CC)c1ccc(-c2nn3ccncc3c2Cc2coc(C)n2)cn1	
4.9	≥ 142	CCN(CC)c1ccc(-c2nn3cccnc3c2Cc2coc(C)n2)cn1	
